{"source": "ChEMBL document CHEMBL1212720", "about": "“Identification of the toxic trigger in mushroom poisoning” (Nat Chem Biol, 2009)", "key": {"[1]": {"system": "Mus musculus", "assay": "Toxicity in po dosed ICR mouse assessed as decreased in mobility after 3 hrs", "assay_type": "organism-based", "details": "in vivo"}, "[2]": {"assay": "Toxicity in po dosed mouse", "assay_type": "organism-based", "details": "in vivo"}, "[3]": {"system": "Rattus norvegicus", "assay": "(§1) Toxicity in po dosed rat", "assay_type": "organism-based", "details": "in vivo"}, "[4]": {"assay": "as §1", "assay_type": "organism-based", "details": "in vivo"}, "[5]": {"system": "Enterococcus", "assay": "Antibacterial activity against Enterococcus after 18 to 48 hrs by serial dilution method", "assay_type": "functional"}, "[6]": {"assay": "Antibacterial activity against Cryptococcus after 18 to 48 hrs by serial dilution method", "assay_type": "functional"}, "[7]": {"system": "Shigella", "assay": "Antibacterial activity against Shigella after 18 to 48 hrs by serial dilution method", "assay_type": "functional"}, "[8]": {"system": "sarcoma", "assay": "Cytotoxicity against human synovial sarcoma cells at 100 ug/ml by MTT assay", "assay_type": "functional, cell-based"}, "[9]": {"system": "Bacillus", "assay": "Antibacterial activity against Bacillus after 18 to 48 hrs by serial dilution method", "assay_type": "functional"}, "[10]": {"system": "Micrococcus", "assay": "Antibacterial activity against Micrococcus after 18 to 48 hrs by serial dilution method", "assay_type": "functional"}, "[11]": {"system": "Serratia", "assay": "Antibacterial activity against Serratia after 18 to 48 hrs by serial dilution method", "assay_type": "functional"}, "[12]": {"system": "Proteus", "assay": "Antibacterial activity against Proteus after 18 to 48 hrs by serial dilution method", "assay_type": "functional"}, "[13]": {"assay": "Cytotoxicity against mouse hyphalamic cells at 100 ug/ml by MTT assay", "assay_type": "cell-based"}, "[14]": {"species": "Mus musculus", "assay": "Cytotoxicity against mouse neuronal tumor cells at 100 ug/ml by MTT assay", "assay_type": "functional, cell-based"}, "[15]": {"system": "Candida", "assay": "Antifungal activity against Candida after 18 to 48 hrs by serial dilution method", "assay_type": "functional"}, "[16]": {"assay": "Cytotoxicity against mouse DRG neuron at 100 ug/ml by MTT assay"}, "[17]": {"system": "Salmonella", "assay": "Antibacterial activity against Salmonella after 18 to 48 hrs by serial dilution method", "assay_type": "functional"}, "[18]": {"system": "Mycobacterium", "assay": "Antibacterial activity against Mycobacterium after 18 to 48 hrs by serial dilution method", "assay_type": "functional"}, "[19]": {"assay": "Chemical stability of the compound at 20 degC assessed as half life", "assay_type": "physicochemical"}, "[20]": {"system": "Mus musculus", "assay": "Induction of rhabdomyolysis in ICR mouse assessed as serum creatine […] level at 5 mg/kg, po after 4 hrs by spectrophotometry (reference value: 240 +/- 34 U/L)", "assay_type": "organism-based", "set-up": "dose 5 mg/kg, route oral", "details": "in vivo"}, "[21]": {"species": "Homo sapiens", "assay": "Cytotoxicity against human astrocytoma cells at 100 ug/ml by MTT assay", "assay_type": "functional, cell-based"}, "[22]": {"species": "Homo sapiens", "assay": "Cytotoxicity against human neuronal tumor cells at 100 ug/ml by MTT assay", "assay_type": "functional, cell-based"}, "[23]": {"system": "Mus musculus", "assay": "Toxicity in ip dosed ICR mouse assessed as decreased in mobility after 3 hrs", "assay_type": "organism-based", "details": "in vivo"}, "[24]": {"system": "Staphylococcus", "assay": "Antibacterial activity against Staphylococcus after 18 to 48 hrs by serial dilution method", "assay_type": "functional"}, "[25]": {"system": "Escherichia", "assay": "Antibacterial activity against Escherichia after 18 to 48 hrs by serial dilution method", "assay_type": "functional"}, "[26]": {"system": "Klebsiella", "assay": "Antibacterial activity against Klebsiella after 18 to 48 hrs by serial dilution method", "assay_type": "functional"}, "[27]": {"system": "Saccharomyces", "assay": "Antifungal activity against Saccharomyces after 18 to 48 hrs by serial dilution method", "assay_type": "functional"}, "[28]": {"system": "Pseudomonas", "assay": "Antibacterial activity against Pseudomonas after 18 to 48 hrs by serial dilution method", "assay_type": "functional"}, "[29]": {"system": "Corynebacterium", "assay": "Antibacterial activity against Corynebacterium after 18 to 48 hrs by serial dilution method", "assay_type": "functional"}, "[30]": {"system": "Mus musculus", "assay": "Induction of rhabdomyolysis in ICR mouse assessed as serum creatine […] level at 70 mg/kg, po after 4 hrs by spectrophotometry (reference value: 240 +/- 34 U/L)", "assay_type": "organism-based", "set-up": "dose 70 mg/kg, route oral", "details": "in vivo"}}, "data": [{"smiles": "CC1=CC1C(=O)O", "note": "(centres undefined)", "values": [{"measurement": "LD100", "setting": "[1]", "value": 50, "unit": "mg/kg"}]}, {"smiles": "C=C(C)C(=O)O", "note": "[METHACRYLIC ACID]", "values": [{"measurement": "LD50", "setting": "[2]", "value": 1600, "unit": "mg/kg"}]}, {"smiles": "CCC(=O)O", "note": "[PROPIONIC ACID]", "values": [{"measurement": "LD50", "setting": "[2]", "value": 5100, "unit": "mg/kg"}]}, {"smiles": "C/C=C/C(=O)O", "note": "[CROTONIC ACID]", "values": [{"measurement": "LD100", "setting": "[1]", "value": 2500, "unit": "mg/kg"}, {"measurement": "LD50", "setting": "[2]", "value": 400, "unit": "mg/kg"}]}, {"smiles": "CCCC(=O)O", "note": "[BUTYRIC ACID]", "values": [{"measurement": "LDLO", "setting": "[3]", "value": 500, "unit": "mg/kg"}, {"measurement": "LD50", "setting": "[4]", "value": 8790, "unit": "mg/kg"}, {"measurement": "LD100", "setting": "[1]", "value": 5000, "unit": "mg/kg"}]}, {"smiles": "CC1=C(C)C1C(=O)O", "values": [{"measurement": "LD100", "setting": "[1]", "value": "> 250", "unit": "mg/kg"}]}, {"smiles": "CC(=O)O", "note": "[ACETIC ACID]", "values": [{"measurement": "LD100", "setting": "[1]", "value": 2500, "unit": "mg/kg"}, {"measurement": "LD50", "setting": "[2]", "value": 4960, "unit": "mg/kg"}]}, {"smiles": "O=C(O)C1C=C1", "values": [{"measurement": "MIC", "setting": "[5]", "value": "> 100", "unit": "µg/mL"}, {"measurement": "MIC", "setting": "[6]", "value": "> 100", "unit": "µg/mL"}, {"measurement": "MIC", "setting": "[7]", "value": "> 100", "unit": "µg/mL"}, {"measurement": "Activity", "setting": "[8]", "value": "Not toxic"}, {"measurement": "MIC", "setting": "[9]", "value": "> 100", "unit": "µg/mL"}, {"measurement": "MIC", "setting": "[10]", "value": "> 100", "unit": "µg/mL"}, {"measurement": "MIC", "setting": "[11]", "value": "> 100", "unit": "µg/mL"}, {"measurement": "MIC", "setting": "[12]", "value": "> 100", "unit": "µg/mL"}, {"measurement": "Activity", "setting": "[13]", "value": "Non-toxic"}, {"measurement": "Activity", "setting": "[14]", "value": "Not toxic"}, {"measurement": "MIC", "setting": "[15]", "value": "> 100", "unit": "µg/mL"}, {"measurement": "LD100", "setting": "[1]", "value": 2.5, "unit": "mg/kg"}, {"measurement": "Activity", "setting": "[16]", "value": "Non-toxic"}, {"measurement": "MIC", "setting": "[17]", "value": "> 100", "unit": "µg/mL"}, {"measurement": "MIC", "setting": "[18]", "value": "> 100", "unit": "µg/mL"}, {"measurement": "half-life", "setting": "[19]", "value": 20, "unit": "h"}, {"measurement": "Activity", "setting": "[20]", "value": 3441, "unit": "U/L"}, {"measurement": "Activity", "setting": "[21]", "value": "Not toxic"}, {"measurement": "Activity", "setting": "[22]", "value": "Not toxic"}, {"measurement": "LD100", "setting": "[23]", "value": 2.5, "unit": "mg/kg"}, {"measurement": "MIC", "setting": "[24]", "value": "> 100", "unit": "µg/mL"}, {"measurement": "MIC", "setting": "[25]", "value": "> 100", "unit": "µg/mL"}, {"measurement": "MIC", "setting": "[26]", "value": "> 100", "unit": "µg/mL"}, {"measurement": "MIC", "setting": "[27]", "value": "> 100", "unit": "µg/mL"}, {"measurement": "MIC", "setting": "[28]", "value": "> 100", "unit": "µg/mL"}, {"measurement": "MIC", "setting": "[29]", "value": "> 100", "unit": "µg/mL"}]}, {"smiles": "C#CC(=O)O", "note": "[PROPIOLIC ACID]", "values": [{"measurement": "LD50", "setting": "[2]", "value": 100, "unit": "mg/kg"}]}, {"smiles": "Nc1ccc(N)cc1", "values": [{"measurement": "Activity", "setting": "[30]", "value": 397, "unit": "U/L"}]}]}
